According to ChEMBL document CHEMBL4334438, “Discovery of novel glycogen synthase kinase-3α inhibitors: Structure-based virtual screening, preliminary SAR and biological evaluation for treatment of acute myeloid leukemia” (Eur J Med Chem, 2019):

How the values were obtained:
[1] = biological target: Serine/threonine-protein kinase 3 (Homo sapiens) (UniProt Q13188); test: Inhibition of recombinant full-length human MST2 (2 to end residues) assessed as residual activity at 1 uM using myelin basic protein as substrate measured after 40 mins in presence of [gamma33P]ATP by scintillation counting method relative to control
[2] = biological target: Ephrin type-B receptor 1 (Homo sapiens) (UniProt P54762); test: Inhibition of recombinant human EphB1 (564 to end residues) assessed as residual activity at 1 uM using KVEKIGEGTYGVVYK as substrate at 40 mins in presence of [gamma-33ATP] by scintillation counting based radiometry assay relative to control
[3] = system: Epidermal growth factor receptor (Homo sapiens), P00533 [L858R,T790M]; test: Inhibition of recombinant human EGFR T790M/L858R mutant (696 to end residues) assessed as residual activity at 1 uM using poly(Glu, Tyr) 4:1 as substrate at 40 mins in presence of [gamma-33ATP] by scintillation counting based radiometry assay relative to control
[4] = biological target: cAMP-dependent protein kinase catalytic subunit alpha (Homo sapiens) (UniProt P17612); test: Inhibition of recombinant human PKA assessed as residual activity at 1 uM using Kemptide as substrate measured after 40 mins in presence of [gamma33P]ATP by scintillation counting method relative to control
[5] = biological target: Eukaryotic translation initiation factor 2-alpha kinase 3 (Homo sapiens) (UniProt Q9NZJ5); test: Inhibition of human PEK (536 to end residues) assessed as residual activity at 1 uM using RSRSRSRSRSRSRSR as substrate measured after 40 mins in presence of [gamma33P]ATP by scintillation counting method relative to control
[6] = biological target: Receptor-interacting serine/threonine-protein kinase 1 (Homo sapiens) (UniProt Q13546); test: Inhibition of recombinant human RIPK1 (8 to 322 residues) assessed as residual activity at 1 uM using myelin basic protein as substrate measured after 120 mins in presence of [gamma33P]ATP by scintillation counting method relative to control
[7] = system: Hepatocyte growth factor receptor (Homo sapiens), P08581 [D1228N]; test: Inhibition of recombinant human MET A1209G/V1290L/D1246N mutant (974 to end residues) assessed as residual activity at 1 uM using KKKGQEEEYVFIE as substrate incubated for 40 mins in presence of [gamma-33ATP by scintillation counting based radiometry assay relative to control
[8] = biological target: Tyrosine-protein kinase CSK (Homo sapiens) (UniProt P41240); test: Inhibition of recombinant human CSK assessed as residual activity at 1 uM poly(Glu, Tyr) 4:1 as substrate incubated 40 mins in presence of [gamma-33ATP] by scintillation counting based radiometry assay relative to control
[9] = biological target: [Pyruvate dehydrogenase (acetyl-transferring)] kinase isozyme 4, mitochondrial (Homo sapiens) (UniProt Q16654); test: Inhibition of recombinant human full length PDHK4 assessed as residual activity at 1 uM using KKKYHGHSMSDPGVSYRT as substrate measured after 40 mins in presence of [gamma33P]ATP by scintillation counting method relative to control
[10] = biological target: Serine/threonine-protein kinase MAK (Homo sapiens) (UniProt P20794); test: Inhibition of recombinant human MAK assessed as residual activity at 1 uM using RRRFRPASPLRGPPK as substrate after 120 mins in presence of [gamma-33ATP] by scintillation counting based radiometry assay relative to control
[11] = biological target: Serine/threonine-protein kinase 32B (Homo sapiens) (UniProt Q9NY57); test: Inhibition of recombinant full-length human STK32B at 1 uM assessed as residual activity at 1 uM using casein as substrate measured after 120 mins in presence of [gamma33P]ATP by scintillation counting method relative to control
[12] = system: RAC-beta serine/threonine-protein kinase (Homo sapiens), P31751 [S474D]; test: Inhibition of recombinant human PKBbeta S474D mutant (120 to end residues) assessed as residual activity at 1 uM using GRPRTSSFAEGKK as substrate measured after 40 mins in presence of [gamma33P]ATP by scintillation counting method relative to control
[13] = biological target: Proto-oncogene tyrosine-protein kinase Src (Homo sapiens) (UniProt P12931); test: Inhibition of recombinant human C-Src assessed as residual activity at 1 uM KVEKIGEGTYGVV as substrate incubated 40 mins in presence of [gamma-33ATP] by scintillation counting based radiometry assay relative to control
[14] = biological target: Testis-specific serine/threonine-protein kinase 3 (Homo sapiens) (UniProt Q96PN8); test: Inhibition of recombinant full-length human TSSK3 at 1 uM assessed as residual activity at 1 uM using AMARAASAAALARRR as substrate measured after 40 mins in presence of [gamma33P]ATP by scintillation counting method relative to control
[15] = biological target: Ribosomal protein S6 kinase alpha-2 (Homo sapiens) (UniProt Q15349); test: Inhibition of recombinant full length human Rsk3 assessed as residual activity at 1 uM using KKKNRTLSVA as substrate measured after 40 mins in presence of [gamma33P]ATP by scintillation counting method relative to control
[16] = biological target: CDK7/Cyclin H/MNAT1 (Homo sapiens) (UniProt P51946+P50613+P51948); test: Inhibition of recombinant full length human CDK7/cyclinH/MAT1 assessed as residual activity at 1 uM using peptide as substrate incubated for 40 mins in presence of [gamma-33ATP] by scintillation counting based radiometry assay relative to control; type: protein-complex assay
[17] = biological target: Dual specificity tyrosine-phosphorylation-regulated kinase 1A (Homo sapiens) (UniProt Q13627); test: Inhibition of recombinant human DYRK1A assessed as residual activity at 1 uM using RRRFRPASPLRGPPK as substrate at 40 mins in presence of [gamma-33ATP] by scintillation counting based radiometry assay relative to control
[18] = biological target: Serine/threonine-protein kinase WNK1 (Homo sapiens) (UniProt Q9H4A3); test: Inhibition of human WNK1 (1 to 491 residues) assessed as residual activity at 1 uM using myelin basic protein as substrate measured after 120 mins in presence of [gamma33P]ATP by scintillation counting method relative to control
[19] = biological target: Serine/threonine-protein kinase VRK1 (Homo sapiens) (UniProt Q99986); test: Inhibition of human VRK1 assessed as residual activity at 1 uM by radiometric method relative to control
[20] = biological target: Aurora kinase C (Homo sapiens) (UniProt Q9UQB9); test: Inhibition of recombinant human Aurora C (35 to end residues) assessed as residual activity at 1 uM using AKRRRLSSLRA as substrate incubated for 40 mins in presence of [gamma-33ATP] by scintillation counting based radiometry assay relative to control
[21] = biological target: Serine/threonine-protein kinase NIM1 (Homo sapiens) (UniProt Q8IY84); test: Inhibition of recombinant full length human NIM1 assessed as residual activity at 1 uM using KKKVSRSGLYRSPSMPENLNRPR as substrate measured after 40 mins in presence of [gamma33P]ATP by scintillation counting method relative to control

Chain of Serine/threonine-protein kinase WNK1 (Homo sapiens) (Q9H4A3 whole entry, looked up, the tested form may be a part): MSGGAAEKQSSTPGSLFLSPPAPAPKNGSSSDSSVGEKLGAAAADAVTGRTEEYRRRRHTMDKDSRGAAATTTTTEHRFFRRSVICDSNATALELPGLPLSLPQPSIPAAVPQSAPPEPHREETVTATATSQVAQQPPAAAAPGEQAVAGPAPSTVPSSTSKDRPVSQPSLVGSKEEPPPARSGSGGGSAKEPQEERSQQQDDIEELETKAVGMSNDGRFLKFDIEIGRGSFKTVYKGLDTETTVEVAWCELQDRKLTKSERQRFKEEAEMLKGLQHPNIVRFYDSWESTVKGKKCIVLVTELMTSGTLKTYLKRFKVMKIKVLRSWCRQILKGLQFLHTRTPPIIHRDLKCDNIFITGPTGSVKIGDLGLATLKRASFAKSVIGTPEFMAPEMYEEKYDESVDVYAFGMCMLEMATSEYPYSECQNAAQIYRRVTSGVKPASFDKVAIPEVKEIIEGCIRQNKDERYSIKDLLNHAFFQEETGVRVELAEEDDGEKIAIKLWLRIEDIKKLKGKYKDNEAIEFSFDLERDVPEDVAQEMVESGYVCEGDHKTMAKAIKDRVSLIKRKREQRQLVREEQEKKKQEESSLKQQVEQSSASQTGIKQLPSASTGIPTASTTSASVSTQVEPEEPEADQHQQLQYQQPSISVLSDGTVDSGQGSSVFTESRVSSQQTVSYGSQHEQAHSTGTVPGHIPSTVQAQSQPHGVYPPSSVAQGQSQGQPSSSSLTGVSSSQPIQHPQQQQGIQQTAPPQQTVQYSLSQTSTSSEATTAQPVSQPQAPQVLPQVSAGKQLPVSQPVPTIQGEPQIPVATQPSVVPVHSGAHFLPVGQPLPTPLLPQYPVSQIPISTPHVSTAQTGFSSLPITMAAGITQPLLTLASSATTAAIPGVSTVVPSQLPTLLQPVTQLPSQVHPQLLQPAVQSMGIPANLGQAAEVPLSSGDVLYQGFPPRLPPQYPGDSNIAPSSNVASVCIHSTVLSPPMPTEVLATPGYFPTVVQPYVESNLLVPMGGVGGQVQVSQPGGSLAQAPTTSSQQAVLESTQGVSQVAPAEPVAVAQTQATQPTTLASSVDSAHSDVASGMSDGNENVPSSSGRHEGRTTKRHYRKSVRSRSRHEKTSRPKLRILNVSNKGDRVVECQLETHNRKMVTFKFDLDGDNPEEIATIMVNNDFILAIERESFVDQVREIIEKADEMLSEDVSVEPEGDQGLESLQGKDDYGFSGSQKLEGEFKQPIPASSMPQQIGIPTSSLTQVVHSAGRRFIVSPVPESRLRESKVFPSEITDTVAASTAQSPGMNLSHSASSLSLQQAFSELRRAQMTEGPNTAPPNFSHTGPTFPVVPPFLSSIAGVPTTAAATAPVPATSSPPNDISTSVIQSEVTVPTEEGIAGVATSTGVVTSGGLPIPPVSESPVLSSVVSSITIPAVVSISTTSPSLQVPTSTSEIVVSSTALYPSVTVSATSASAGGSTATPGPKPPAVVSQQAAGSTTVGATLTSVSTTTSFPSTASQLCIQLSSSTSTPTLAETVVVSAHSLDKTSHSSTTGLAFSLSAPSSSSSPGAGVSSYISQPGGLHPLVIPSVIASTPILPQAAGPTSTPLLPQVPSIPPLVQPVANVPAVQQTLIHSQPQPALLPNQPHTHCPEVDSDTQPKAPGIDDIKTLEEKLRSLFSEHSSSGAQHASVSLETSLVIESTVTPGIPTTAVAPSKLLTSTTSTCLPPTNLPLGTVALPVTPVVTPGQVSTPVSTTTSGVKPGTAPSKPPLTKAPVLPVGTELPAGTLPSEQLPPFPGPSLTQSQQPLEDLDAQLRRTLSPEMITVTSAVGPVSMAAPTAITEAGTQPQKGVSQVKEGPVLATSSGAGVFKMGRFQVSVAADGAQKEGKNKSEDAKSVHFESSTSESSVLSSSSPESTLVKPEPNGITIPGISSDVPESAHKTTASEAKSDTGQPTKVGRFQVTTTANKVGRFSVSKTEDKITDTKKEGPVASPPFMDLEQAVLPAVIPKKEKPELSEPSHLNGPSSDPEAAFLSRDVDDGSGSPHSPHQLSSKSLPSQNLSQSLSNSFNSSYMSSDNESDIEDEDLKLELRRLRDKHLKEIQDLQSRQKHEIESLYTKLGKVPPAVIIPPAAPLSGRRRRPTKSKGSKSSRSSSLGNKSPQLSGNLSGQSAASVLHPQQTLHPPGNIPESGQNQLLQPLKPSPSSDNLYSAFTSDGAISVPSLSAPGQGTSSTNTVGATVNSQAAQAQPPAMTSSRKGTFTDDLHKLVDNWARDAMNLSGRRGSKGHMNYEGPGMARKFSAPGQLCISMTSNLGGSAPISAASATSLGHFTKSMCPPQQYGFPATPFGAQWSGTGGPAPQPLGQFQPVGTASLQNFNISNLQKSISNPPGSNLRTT
Chain of Serine/threonine-protein kinase 3 (Homo sapiens) (Q13188 whole entry): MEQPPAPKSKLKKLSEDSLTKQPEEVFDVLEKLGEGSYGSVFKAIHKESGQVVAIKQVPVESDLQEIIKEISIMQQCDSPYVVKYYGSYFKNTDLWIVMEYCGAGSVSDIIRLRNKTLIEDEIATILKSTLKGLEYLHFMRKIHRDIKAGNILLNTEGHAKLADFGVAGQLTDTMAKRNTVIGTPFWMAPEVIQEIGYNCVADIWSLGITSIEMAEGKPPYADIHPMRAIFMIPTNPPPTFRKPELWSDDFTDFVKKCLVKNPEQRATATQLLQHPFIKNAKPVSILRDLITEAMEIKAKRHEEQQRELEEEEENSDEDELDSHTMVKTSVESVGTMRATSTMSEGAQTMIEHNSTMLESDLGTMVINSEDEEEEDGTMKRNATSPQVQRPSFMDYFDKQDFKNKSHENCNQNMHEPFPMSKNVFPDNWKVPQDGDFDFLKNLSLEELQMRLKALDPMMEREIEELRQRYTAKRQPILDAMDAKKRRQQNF
Chain of RAC-beta serine/threonine-protein kinase (Homo sapiens), P31751 [S474D] (P31751 whole entry S474D): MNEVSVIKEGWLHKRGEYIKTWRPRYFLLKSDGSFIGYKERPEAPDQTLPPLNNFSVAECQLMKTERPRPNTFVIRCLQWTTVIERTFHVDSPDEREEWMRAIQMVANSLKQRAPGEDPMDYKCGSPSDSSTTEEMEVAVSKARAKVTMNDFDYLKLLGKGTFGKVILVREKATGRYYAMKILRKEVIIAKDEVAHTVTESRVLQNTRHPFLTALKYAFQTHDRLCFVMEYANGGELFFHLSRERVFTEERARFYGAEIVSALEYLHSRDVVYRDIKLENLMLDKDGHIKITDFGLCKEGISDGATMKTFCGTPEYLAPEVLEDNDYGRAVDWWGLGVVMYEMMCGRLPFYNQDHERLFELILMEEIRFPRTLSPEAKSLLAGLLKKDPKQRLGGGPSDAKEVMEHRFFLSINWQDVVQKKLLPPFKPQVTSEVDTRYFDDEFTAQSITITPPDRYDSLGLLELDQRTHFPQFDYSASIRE
Chain of Testis-specific serine/threonine-protein kinase 3 (Homo sapiens) (Q96PN8 whole entry): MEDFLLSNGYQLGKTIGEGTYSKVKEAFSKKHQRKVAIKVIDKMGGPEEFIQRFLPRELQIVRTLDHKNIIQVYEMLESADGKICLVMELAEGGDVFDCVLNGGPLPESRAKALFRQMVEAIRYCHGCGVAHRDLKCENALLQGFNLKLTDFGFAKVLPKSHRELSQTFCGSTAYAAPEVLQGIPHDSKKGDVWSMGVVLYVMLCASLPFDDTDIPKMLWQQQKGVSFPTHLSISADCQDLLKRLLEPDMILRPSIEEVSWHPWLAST
Chain of Proto-oncogene tyrosine-protein kinase Src (Homo sapiens) (P12931 2-536 limits assumed): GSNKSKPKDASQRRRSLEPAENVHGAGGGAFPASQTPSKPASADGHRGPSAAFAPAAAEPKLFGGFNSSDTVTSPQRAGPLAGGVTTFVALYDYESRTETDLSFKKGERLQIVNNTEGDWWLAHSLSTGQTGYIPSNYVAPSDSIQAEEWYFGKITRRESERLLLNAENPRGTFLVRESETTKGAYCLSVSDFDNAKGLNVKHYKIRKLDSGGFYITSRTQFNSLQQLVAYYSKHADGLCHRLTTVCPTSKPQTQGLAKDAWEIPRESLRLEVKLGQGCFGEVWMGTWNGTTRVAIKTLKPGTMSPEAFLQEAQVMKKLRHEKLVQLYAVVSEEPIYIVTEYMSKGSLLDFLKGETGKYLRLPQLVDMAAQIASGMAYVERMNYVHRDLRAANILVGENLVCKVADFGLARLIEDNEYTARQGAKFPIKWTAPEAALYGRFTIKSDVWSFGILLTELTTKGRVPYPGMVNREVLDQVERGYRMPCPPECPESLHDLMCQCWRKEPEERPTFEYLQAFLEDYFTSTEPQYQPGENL
Chain of Aurora kinase C (Homo sapiens) (Q9UQB9 whole entry): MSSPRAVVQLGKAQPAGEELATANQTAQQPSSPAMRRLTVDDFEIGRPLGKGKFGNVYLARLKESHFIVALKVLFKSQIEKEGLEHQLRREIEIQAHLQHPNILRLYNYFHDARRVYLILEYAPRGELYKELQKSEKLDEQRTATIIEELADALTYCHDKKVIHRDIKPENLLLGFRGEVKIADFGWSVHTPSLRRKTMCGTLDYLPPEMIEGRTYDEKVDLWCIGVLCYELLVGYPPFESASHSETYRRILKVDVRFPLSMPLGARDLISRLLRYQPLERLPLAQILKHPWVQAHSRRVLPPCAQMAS
Chain of Serine/threonine-protein kinase VRK1 (Homo sapiens) (Q99986 whole entry): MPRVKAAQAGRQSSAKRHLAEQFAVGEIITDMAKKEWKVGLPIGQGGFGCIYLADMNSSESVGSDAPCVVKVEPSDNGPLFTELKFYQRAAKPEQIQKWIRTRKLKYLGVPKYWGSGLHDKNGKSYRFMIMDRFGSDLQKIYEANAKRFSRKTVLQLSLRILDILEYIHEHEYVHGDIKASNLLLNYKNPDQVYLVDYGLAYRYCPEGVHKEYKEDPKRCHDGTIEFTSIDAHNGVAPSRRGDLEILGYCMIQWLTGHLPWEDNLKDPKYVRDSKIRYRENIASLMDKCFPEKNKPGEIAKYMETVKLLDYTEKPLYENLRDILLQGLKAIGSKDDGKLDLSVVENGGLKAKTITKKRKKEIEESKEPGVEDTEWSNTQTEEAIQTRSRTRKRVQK

| Structure (SMILES) | Activity [1] [%] | Activity [2] [%] | Activity [3] [%] | Activity [4] [%] | Activity [5] [%] | Activity [6] [%] | Activity [7] [%] | Activity [8] [%] | Activity [9] [%] | Activity [10] [%] | Activity [11] [%] | Activity [12] [%] | Activity [13] [%] | Activity [14] [%] | Activity [15] [%] | Activity [16] [%] | Activity [17] [%] | Activity [18] [%] | Activity [19] [%] | Activity [20] [%] | other results |
| --- | --- | --- | --- | --- | --- | --- | --- | --- | --- | --- | --- | --- | --- | --- | --- | --- | --- | --- | --- | --- | --- |
| C=CCOC(=O)c1cc(-c2ccc(/C=C3/NC(=S)NC3=O)o2)ccc1Cl | 92 | 102 | 97 | 82 | 95 | 106 | 114 | 102 | 100 | 37 | 86 | 102 | 79 | 99 | 112 | 94 | 16 | 94 | 99 | 104 | Activity [21]: 95% |
| N=C1NC(=O)/C(=C\c2ccc(-c3cccc([N+](=O)[O-])c3)o2)S1 | 98 | 115 | 89 | 107 | 99 | 100 | 105 | 96 | 103 | 17 | 102 | 111 | 82 | 106 | 96 | 92 | 25 | 97 | 92 | 109 | Activity [21]: 101% |
